The results in this text go back to patent US20100190813A1, “SPIRO [PIPERIDINE-4- 4' -THIENO [3,2-C] PYRAN] DERIVATIVES AND RELATED COMPOUNDS AS INHIBITORS OF THE SIGMA RECEPTOR FOR THE TREATMENT OF PSYCHOSIS” (priority 2007, published 2010).

Where two headings read alike, the source gives them in different places.

In one data set the target is T1, σ2-receptor (Rattus norvegicus, UniProt Q5U3Y7).
T1 construct: the σ2-Receptorpreparation was prepared from rat liver; from tissue; host or cells: rat liver membrane homogenate
T1 sequence (Q5U3Y7 1-176): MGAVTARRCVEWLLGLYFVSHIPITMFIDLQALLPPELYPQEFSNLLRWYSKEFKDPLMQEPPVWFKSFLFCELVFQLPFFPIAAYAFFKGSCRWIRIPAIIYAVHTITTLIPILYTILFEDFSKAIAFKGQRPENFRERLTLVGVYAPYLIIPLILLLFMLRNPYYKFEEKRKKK
Put plainly: Sigma 2 receptor binding (Version B), [3H]-Ditolylguanidin displacement. The following applies: for Ki: [3H]-Ditolylguanidin 3 nM, σ1 sites masked with (+)-Pentazocin 500 nM; for inhibition at 1 µM: read-out: Binding σ2 *[Inhibition at 1 μM]. Here is the method: In brief the σ2-Receptorpreparation was prepared from rat liver. The livers were homogenized in 5 to 6 times of volume sucrose solution (0.32M) and homogenized. The homogenate was centrifuged at 2900 rpm, 4° C., 10 min). the supernatant was centrifuged again (31000×g, 4° C., 20 min). The pellet was resuspended in TRIS-buffer, incubated for 30 min at room temperature while stirring and centrifuged f (31000×g, 4° C., 20 min). The pellet was resuspended in cold TRIS-buffer pH 8 and homogenized. Then the protein content was measured (approx. 2 mg/mL) and the homogenate frozen at −80° C. for later use.
The radioligand used was [^3H]-Ditolylguanidin in TRIS-buffer pH 8. The σ1-receptor binding sites were masked through (+)-Pentazocin-solution in TRIS-Puffer pH 8.
In a volume of 200 μL 50 μL compound solution of varying concentration, 50 μL (+)-Pentazocin-solution ([…]; resulting in 500 nM in the assay), 50 μL radioligand-solution (12 nM; resulting in 3 nM in the assay) and finally 50 μL of receptor preparation (approx. 2 mg/mL) were given into a well of a microplate equipped with a filter. The plate was closed and stirred for 2 h at room temperature and 500 rpm. Following that the solvents were removed by a harvester through the filter. After rinsing with H2O the filter was measured in a scintillation counter ([^3H]-protocol).

Data set [1] has as its target T2, σ1-receptor (Cavia porcellus, UniProt Q60492).
T2 construct: the σ1-receptor preparation was prepared from guinea pig brain; from tissue; host or cells: guinea pig brain membrane homogenate
Put plainly: Sigma 1 receptor binding (Version B), [3H]-(+)-Pentazocin displacement. The arrangement: species or system guinea pig. Here is the method: In brief the σ1-receptor preparation was prepared from guinea pig brain. The brains were homogenized in 5 to 6 times of volume sucrose solution (0.32M) and homogenized. The homogenate was centrifuged at 2900 rpm, 4° C., 10 min). the supernatant was centrifuged again (23500×g, 4° C., 20 min). The pellet was resuspended in Tris-buffer, incubated for 30 min at room temperature and centrifuged f (23500×g, 4° C., 20 min). The pellet was resuspended in cold TRIS-buffer and homogenized. Then the protein content was measured (approx. 1.5 mg/mL) and the homogenate frozen at −80° C. for later use.
The radioligand used was [^3H]-(+)-Pentazocin in TRIS-buffer. In a volume of 200 μL 50 μL TRIS-buffer, 50 μL compound solution of varying concentration, 50 μL radioligand-solution (8 nM; resulting in 2 nM in the assay) and finally 50 μL of receptor preparation (approx. 1.5 mg/mL) were given into a well of a microplate equipped with a filter. The plate was closed and stirred for 2.5 h at 37° C. and 500 rpm. Following that the solvents were removed by a harvester through the filter. After rinsing with H2O the filter was measured in a scintillation counter ([^3H]-protocol).

The target in data set [2] is T2, σ1-receptor. Briefly: Sigma-1 receptor binding (Version A), [3H]-(+)-pentazocine displacement. The arrangement: species or system guinea pig.
Setting [3] is: version B, rat liver preparation, read-out: Binding σ2 Ki.
Where [4] appears, read: version A, guinea pig brain membranes, [3H]-(+)-pentazocine 3.0 nM, read-out: Binding σ1, Ki.
[5] abbreviates: Binding σ2 Ki [nM], version B, rat liver preparation.
[6] abbreviates: version B, guinea pig brain preparation, [3H]-(+)-Pentazocin 2 nM, read-out: Binding σ1 Ki.
Where [7] appears, read: version B, rat liver preparation, compound at 1 μM.

T2 sequence (Q60492 whole entry): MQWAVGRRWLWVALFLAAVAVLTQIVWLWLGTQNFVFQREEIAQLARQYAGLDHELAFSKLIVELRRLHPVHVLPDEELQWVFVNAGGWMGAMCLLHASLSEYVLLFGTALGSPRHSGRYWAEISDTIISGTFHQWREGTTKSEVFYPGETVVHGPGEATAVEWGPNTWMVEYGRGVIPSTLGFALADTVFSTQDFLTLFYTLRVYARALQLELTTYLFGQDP

For `CCCCCCCCN1CCC2(CC1)OC(OC)Cc1sccc12` (centres unmarked) [Example 10, 6′-Methoxy-1-octyl-6′,7′-dihydrospiro[piperidin-4,4-thieno[3.2-c]pyran]], the Ki was 1200 nM at σ2-receptor (setting [3]) and 4.5 ± 2 nM on σ1-receptor [1].
For `N#CCC1Cc2sccc2C2(CCN(Cc3ccccc3)CC2)O1` (centres unmarked) [Example 23a], the “Binding σ2 *[Inhibition at 1 μM]” value at σ2-receptor (version B, rat liver preparation, compound at 1 μM, 1 µM) was found to be 6%.
`COc1ccc(CN2CCC3(CC2)OC(OC)Cc2sccc23)cc1` (centres unmarked) [Example 14, 6′-Methoxy-1-(4-methoxybenzyl)-6′,7′-dihydrospiro[piperidin-4,4′-thieno[3.2-c]pyran]]: the Ki on σ2-receptor (setting [3]) was found to be 2970 nM; on σ1-receptor [1], 2.24 ± 0.99 nM.
Take `c1ccc(CN2CCC3(CC2)OCCc2sccc23)cc1` [Example 19, 1-Benzyl-6′,7′-dihydrospiro[piperidin-4,4′-thieno[3,2-c]pyran]]: the results for the Ki at σ1-receptor [2] (setting [4]), at σ2-receptor (setting [5]) and on σ1-receptor [1] were 2.1 ± 0.4 nM, 9.6 ± 8.7 nM and 0.31 ± 0.11 nM, respectively.
As to `COC1Cc2sccc2C2(CCN(CCCCc3ccccc3)CC2)O1` (centres unmarked) [Example 12, 3′-Methoxy-1-(4-phenylbutyl)-6′,7′-dihydrospiro[piperidin-4,4% thieno[3.2-c]pyran]], the Ki on σ2-receptor (setting [5]) is 99.2 ± 21.9 nM; on σ1-receptor [1] (setting [6]) it was 7.67 ± 2.15 nM.
The term inhibition denotes how much of the control response was suppressed. In the case of `N#CCC1Cc2sccc2C2(CCN(Cc3ccccc3)CC2)O1` (centres unmarked) [Example 18, {1-Benzyl-6′,7′-dihyrospiro[piperidin-4,4′-thieno[3,2-c]pyran]-6′-yl}acetonitril], the inhibition at 1 µM on σ2-receptor (setting [7]) was 6%.
As to `CCCCCN1CCC2(CC1)OC(OC)Cc1sccc12` (centres unmarked) [Example 9, 6′-Methoxy-1-pentyl-6′,7′-dihydrospiro[piperidin-4,4′-thieno[3.2-c]pyran]], the values for the Ki at σ1-receptor [2], at σ2-receptor (setting [3]) and at σ1-receptor [1] were 2.9 ± 0.5 nM, 460 nM and 1.64 ± 0.53 nM, respectively.
Regarding `COC1Cc2sc(C(=O)c3ccccc3)cc2C2(CCN(Cc3ccccc3)CC2)O1` (centres unmarked) [Example 47, 1-(1-Benzyl-6′-methoxy-6′,7′-dihydrospiro[piperidine-4,4′-thieno[3.2-c]pyrano]-2-yl)-1-phenylmethanone], on σ2-receptor (setting [3]), the Ki turned out to be 427 ± 163 nM.
Consider `COC1Cc2sc(C#N)cc2C2(CCN(Cc3ccccc3)CC2)O1` (centres unmarked) [Example 44, 1-Benzyl-6′-methoxy-6′,7′-dihydrospiro[piperidine-4,4′-thieno[3,2-c]pyrano]-2-carbonitrile], for which, at σ2-receptor (setting [7]), the inhibition at 1 µM worked out at 16%.
On to `COC1Cc2sccc2C2(CCN(Cc3ccc(F)cc3)CC2)O1` (centres unmarked) [Example 13, 1-(4-Flourbenzyl)-6′-Methoxy-6′,7′-dihydrospiro[piperidin-4,4′-thieno[3.2-c]pyran]], for which the Ki came out at 2.3 ± 0.4 nM on σ1-receptor [2], 425 nM at σ2-receptor (setting [3]) and 3.39 ± 4.54 nM at σ1-receptor [1].
For the molecule `COC1Cc2sc(CN(C)C)cc2C2(CCN(Cc3ccccc3)CC2)O1` (centres unmarked) [Example 42, (1-Benzyl-6′-methoxy-6′,7′-dihydrospiro[piperidine-4,4′-thieno[3.2-c]pyrano]-2′-yl)-N,N-dimethylmethanamine], the Ki was determined as 898 nM on σ2-receptor (setting [3]) and 16.8 ± 1.1 nM at σ1-receptor [1].
In the case of `OCCC1Cc2sccc2C2(CCN(Cc3ccccc3)CC2)O1` (centres unmarked) [Example 27, 2-(1-Benzyl-6′,7′-dihyrospiro[piperidine-4,4′-thieno[3,2-c]pyrano]-6′-yl)ethanol], the inhibition at 1 µM at σ2-receptor (setting [7]) stood at 11%.
In the case of `c1ccc(CN2CCC3(CC2)OCCc2sccc23)cc1` [Example 26a], on σ1-receptor [1] (read-out: Binding σ1 Ki, version B, guinea pig brain preparation, [3H]-(+)-Pentazocin 2 nM), the Ki is 0.31 ± 0.11 nM.
Turning to `COC1Cc2sccc2C2(CCN(CCC(C)C)CC2)O1` (centres unmarked) [Example 6, 6′-Methoxy-1-(3-methylbutyl)-6′,7′-dihydrospiro[piperidin-4,4′-thieno[3.2-c]pyran]], the Ki at σ1-receptor [2] is 1.3 ± 0.5 nM; on σ2-receptor (setting [3]) it was 285 nM; at σ1-receptor [1], 0.96 ± 0.53 nM.
In the case of `CCOC(=O)C1Cc2sccc2C2(CCN(Cc3ccccc3)CC2)O1` (centres unmarked) [Example 33, Ethyl-1-benzyl-6′,7′-dihvrospiro[piperidine-4,4′-thieno[3,2-c]pyrano]-6′-carboxylate], the inhibition at 1 µM on σ2-receptor (setting [7]) turned out to be 0%.
As usually defined, the melting point is the temperature, or range, at which the solid turns liquid. `COC1Cc2sc(C(OC)OC)cc2C2(CCN(Cc3ccccc3)CC2)O1` (centres unmarked) [Example 37] showed a melting point of 71 °C.
`COC1Cc2sccc2C2(CCN(Cc3cccs3)CC2)O1` (centres unmarked) [Example 15, 6′-Methoxy-1-(thien-2-ylmethyl)-6′,7′-dihydrospiro[piperidin-4,4′-thieno[3.2-c]pyran]]: the Ki on σ2-receptor (setting [3]) was 1040 nM; on σ1-receptor [1] (setting [6]), 2.02 ± 0.61 nM.
Consider `CCCCN1CCC2(CC1)OC(OC)Cc1sccc12` (centres unmarked) [Example 8, 1-Butyl-6′-methoxy-6′,7′-dihydrospiro[piperidin-4,4′-thieno[3.2-c]pyran]], for which the figures for the Ki at σ1-receptor [2], at σ2-receptor (setting [3]) and on σ1-receptor [1] (setting [6]) were 5.5 ± 1.2 nM, 497 ± 294 nM and 4.3 ± 0.44 nM, respectively.
With `COC1Cc2sccc2C2(CCN(CCCc3ccccc3)CC2)O1` (centres unmarked) [Example 11], the Ki at σ2-receptor (setting [3]) came to 203 nM.
`c1cc2c(s1)CCOC21CCN(CC2CCCCC2)CC1` [Example 26, 1-(Cyclohexylmethyl)-6′,7′-dihydrospiro[piperidine-4,4′-thieno[3,2-c]pyrano]]: the melting point was found to be 77 °C. In addition, on σ2-receptor (setting [5]), the Ki is 3.27 ± 0.53 nM. Also, the Ki on σ1-receptor [1] (setting [6]) came to 0.66 ± 0.27 nM.
In the case of `COC1Cc2sccc2C2(CCNCC2)O1` (centres unmarked) [Example 2, 6′-Methoxy-6′,7′-dihydrospiro[piperidin-4,4′-thieno[3,2-c]pyran], on σ2-receptor (setting [7]), the inhibition at 1 µM stood at 17%. Further, the Ki on σ1-receptor [1] (setting [6]) came to 602 nM.
Turning to `COC1Cc2sc(Cl)cc2C2(CCN(Cc3ccccc3)CC2)O1` (centres unmarked) [Example 38, 1-Benzyl-2′-chloro-6′-methoxy-6′,7′-dihydrospiro[piperidine-4,4′-thieno[3.2-c]-pyrano]], the melting point worked out at 117 °C. In addition, on σ2-receptor (setting [7]), the inhibition at 1 µM was determined as 49%.
With `O=C1Cc2sccc2C2(CCN(Cc3ccccc3)CC2)O1` [Example 28, 1-Benzylspiro[piperidine-4,4′-thieno[3.2-c]pyrano]-6′(7′H)-one], the inhibition at 1 µM at σ2-receptor is 0%.
As for `COC1Cc2sc(C=NO)cc2C2(CCN(Cc3ccccc3)CC2)O1` (mixture of isomers) [Example 43, (E/Z)-1-Benzyl-6′-methoxy-6′,7′-dihydrospiro[piperidine-4,4′-thieno[3,2-c]pyrano]-2-carbaldehydroxim], the inhibition at 1 µM on σ2-receptor (setting [7]) came out at 2%.
Regarding `COC1Cc2sccc2C2(CCN(CC3CCCCC3)CC2)O1` (centres unmarked) [Example 5, 1-(Cyclohexylmethyl)-6′Methoxy-6′,7′-dihydrospiro[piperidin-4,4′-thieno[3.2-c]pyran]], the Ki on σ1-receptor [2] (setting [4]) turned out to be 2.2 ± 0.3 nM; on σ1-receptor [1] (setting [6]), 0.29 ± 0.079 nM.
With `CC(=O)CC1Cc2sccc2C2(CCN(Cc3ccccc3)CC2)O1` (centres unmarked) [Example 23, 1-(1-Benzyl-6′,7′-dihydrospiro[piperidine-4,4′-thieno[3.2-c]pyrano]-6′-yl)acetone], the Ki on σ2-receptor (setting [3]) stood at 1610 nM.
For the molecule `COC(=O)c1cc2c(s1)CC(OC)OC21CCN(Cc2ccccc2)CC1` (centres unmarked) [Example 45, Methyl-1-benzyl-6′-methoxy-6′,7′-dihydrospiro[piperidine-4,4′-thieno[3,2-c]pyrano]-2-carboxylate], on σ2-receptor (setting [7]), the inhibition at 1 µM stood at 45%.
On to `NC(=O)C1Cc2sccc2C2(CCN(Cc3ccccc3)CC2)O1` (centres unmarked) [Example 29, 1-Benzyl-6′,7′-dihyrospiro[piperidine-4,4′-thieno[3,2-c]pyrano]-6′-carboxamide], for which the inhibition at 1 µM on σ2-receptor (setting [7]) worked out at 63%.
Regarding `COC1Cc2sccc2C2(CCN(CC=C(C)C)CC2)O1` (centres unmarked) [Example 7, 6′-Methoxy-1-(3-methylbut-2-enyl)-6′,7′-dihydrospiro[piperidin-4.4-thieno[3.2-c]pyran]], the Ki was determined as 78.1 ± 74 nM on σ2-receptor (setting [5]) and 0.96 ± 0.25 nM at σ1-receptor [1].
